# Test results taken from patent US9328130B2, “Method of treating organism by biologically active compounds specifically delivered into mitochondria, pharmaceutical composition required for the use of the method and a compound applicable for this purpose” (MITOTECH S.A., priority 2005, dated 2016).
# Key:
# [1] = Transfer across the planar bilayer phospholipid membrane; format: physicochemical; conditions: 50 mM TrisHCl pH 7.4; 10^−7 to 10^−5 M; distributes according to Nernst equation
# Source text: The experimental method has been used several times before in the experiments aimed at the exploring of an ability of different ions to penetrate the planar bilayer lipid membrane and is described in details Liberman […]., 1969, Nature, 222, 1076-8. This method includes the use of two chambers filled in with water-based solution and separated by bilayer membrane, also the electrometrical registration of transfer of charged compounds capable of penetration across such membrane from one chamber to another. In our experiment the membrane was made of mixture of […] and diphytanoyl derivative of […] dissolved in decane; both chambers were filled with 50 mM TrisHCl, pH 7.4 containing 10^-7 M SkQ1.
# [2] = tested on: OXYS rats; test: Cataract and macular dystrophy in senescence-accelerated OXYS rats; format: in vivo, rat
# Method: The animals were housed in cages (45*35*35 cm) and kept under standard laboratory conditions (at 22±1° C., 60% relative humidity, and natural light), provided with a standard rodent diet (PK-120-1, Ltd. ‘Laboratorsnab’, Russia), and given water ad libitum. At the age of 1.5 months after preliminary pupil dilation with 1% tropicamide ophthalmic the rats were conducted through ophthalmoscopic examination using direct ophthalmoscop “Betta”, Germany. […] We use Vitamin E for a comparison with test antioxidants. Animals received the compounds on a small piece of dried bread before a regular meal, and the control group of animals received the same piece of bread without any compound. After completing the course of antioxidants the animals were retested with ophthalmoscope. To avoid human factor in the evaluation of compound effects the researcher who conducted the ophthalmoscopic examination was not told which of the animals received antioxidants. The lens state was evaluated according to the classification system accepted in clinical practice with grades ranging from 0 to 3: score 0—the lens is clear; score 1—spotted weak cloudiness; score 2—multiple spots of cloudiness and score 3—intense cloudiness of the lens core and nucleus.
# [3] = tested on: Normal fibroblasts from the human skin and lung; test: Morphology and mobility of normal fibroblasts; format: cell-based; conditions: 20 nM for 6 days
# Method: Normal fibroblasts from the human skin and lung and HeLa cells were cultivated at low cell density (20-30% confluency). Morphometric measurements were carried out for cell area, dispersion and elongation. Cytoskeleton structures were analyzed by staining the fixed cell preparations with rhodamine falloidin (actin filaments), antibodies against tubulin (microtubules) and vinculin (surface contacts). Mobility of the cells was examined with the help of microvideo camera.
# [4] = OXYS rats age 3 months after oral course
smiles,measurement,setting,value
"CC1=C(C)C(=O)C(CCCCCCCCCC[P+](c2ccccc2)(c2ccccc2)c2ccccc2)=CC1=O.[Br-] [SkQ1, 2,3-dimethyl-1,4-benzoquinon-5-decyl-triphenylphosphonium bromide]",penetration of planar bilayer phospholipid membrane,[1],penetrates the planar bilayer phospholipid membrane
same,2nd stage of cataract,[2]; [4],all of them were defined as the 1st stage of cataract
same,2nd stage of macular degeneration,[2]; [4],also were defined as the 1st stage of macular degeneration
same,changes in the macular area of the retina,[2]; [4],38%
same,eyes with lens changes,[2]; OXYS rats age 3 months after oral course from 1.5 to 3 months,46%
same,"amount of actin filaments, times higher",[3],3.7 times
same,dispersion index lowered by factor,[3],2.4
same,filament density in comparison to the control,[3],136%
same,"mean cell area, times higher than control",[3],2.9 times
same,mobility of fibroblasts,[3],distinctly lower
same,rate of fibroblast proliferation,[3],no influence on the rate of fibroblast proliferation
same,elongation index,[3]; control 2.34,0.69
